Results as given in patent publication US7772241B2, “Variolin derivatives and their use as antitumor agents” (Pharma Mar S.A., priority 2001, dated 2010).
Like-named read-outs stand apart in the source and are kept apart here.

What was measured:
[1] = test system: K-562; experiment: Inhibition of cells growth by colorimetric (SRB) assay, K-562
Outline: (§1)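 Read-out is sulforhodamine B protein stain (OD 490 nm) after cold TCA fixation, following 48 h continuous exposure to samples spanning 10 to 10^−8 μg/ml.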

[2] = test system: A-549; experiment: Inhibition of cells growth by colorimetric (SRB) assay, A-549
Outline: as §1

[3] = test system: SK-MEL-28; experiment: Inhibition of cells growth by colorimetric (SRB) assay, SK-MEL-28
Outline: as §1

[4] = test system: HT-29; experiment: Inhibition of cells growth by colorimetric (SRB) assay, HT-29
Outline: as §1

[5] = test system: LoVo; experiment: Inhibition of cells growth by colorimetric (SRB) assay, LoVo
Outline: as §1

[6] = test system: LoVo-Dox; experiment: Inhibition of cells growth by colorimetric (SRB) assay, LoVo-Dox
Outline: as §1

[7] = test system: DU-145; experiment: Inhibition of cells growth by colorimetric (SRB) assay, DU-145
Outline: as §1

[8] = test system: LNCaP; experiment: Inhibition of cells growth by colorimetric (SRB) assay, LNCaP
Outline: as §1

[9] = test system: SK-BR-3; experiment: Inhibition of cells growth by colorimetric (SRB) assay, SK-BR-3; conditions: for GI50 / CC50: Homo sapiens, SK-BR-3, 48 h
Outline: as §1

[10] = test system: IGROV-1; experiment: Inhibition of cells growth by colorimetric (SRB) assay, IGROV-1
Outline: as §1

[11] = test system: IGROV-ET; experiment: Inhibition of cells growth by colorimetric (SRB) assay, IGROV-ET
Outline: as §1

[12] = test system: HeLa; experiment: Inhibition of cells growth by colorimetric (SRB) assay, HeLa; conditions: for GI50: Homo sapiens, HeLa, 48 h; for HELA TGI: unit not given here
Outline: as §1

[13] = test system: HeLa-APL; experiment: Inhibition of cells growth by colorimetric (SRB) assay, HeLa-APL; conditions: for GI50 / CC50: Homo sapiens, 48 h
Outline: as §1

[14] = test system: PANC-1; experiment: Inhibition of cells growth by colorimetric (SRB) assay, PANC-1
Outline: as §1

## COc1ccnc2c1c(-c1ccnc(N)n1)c1ccnc(N)n12.Cl [Compound 116]
[1]; SRB assay, 48 hours exposure
  TGI K-562: 2.12E−05
[1]; read-out: GI50 K-562, SRB assay, 48 hours exposure
  GI50: 2870 nM
[1]; read-out: LC50 K-562, SRB assay, 48 hours exposure
  CC50: 26.3 µM
[2]; SRB assay, 48 hours exposure
  TGI A-549: 7.68E−06
[2]; read-out: GI50 A-549, SRB assay, 48 hours exposure
  GI50: 1150 nM
[2]; read-out: LC50 A-549, SRB assay, 48 hours exposure
  CC50: 26.3 µM
[3]; SRB assay, 48 hours exposure
  TGI MEL-28: 2.11E−06
[3]; read-out: GI50 MEL-28, SRB assay, 48 hours exposure
  GI50: 1100 nM
[3]; read-out: LC50 MEL-28, SRB assay, 48 hours exposure
  CC50: 10.4 µM
[4]; SRB assay, 48 hours exposure
  TGI HT-29: 1.88E−05
[4]; read-out: GI50 HT-29, SRB assay, 48 hours exposure
  GI50: 6.18 µM
[4]; read-out: LC50 HT-29, SRB assay, 48 hours exposure
  CC50: 26.3 µM
[5]; SRB assay, 48 hours exposure
  TGI LOVO: 1.22E−06
[5]; read-out: GI50 LOVO, SRB assay, 48 hours exposure
  GI50: 550 nM
[5]; read-out: LC50 LOVO, SRB assay, 48 hours exposure
  CC50: 26.3 µM
[6]; SRB assay, 48 hours exposure
  TGI LOVO-DOX: 2.59E−06
[6]; read-out: GI50 LOVO-DOX, SRB assay, 48 hours exposure
  GI50: 1070 nM
[6]; read-out: LC50 LOVO-DOX, SRB assay, 48 hours exposure
  CC50: 26.3 µM
[7]; SRB assay, 48 hours exposure
  TGI DU-145: 2.54E−06
[7]; read-out: GI50 DU-145, SRB assay, 48 hours exposure
  GI50: 1130 nM
[7]; read-out: LC50 DU-145, SRB assay, 48 hours exposure
  CC50: 26.3 µM
[8]; SRB assay, 48 hours exposure
  TGI LN-caP: 1.21E−06
[8]; read-out: GI50 LN-caP, SRB assay, 48 hours exposure
  GI50: 602 nM
[8]; read-out: LC50 LN-caP, SRB assay, 48 hours exposure
  CC50: 2430 nM
[9]; read-out: GI50 SK-BR-3, SRB assay, 48 hours exposure
  GI50: 892 nM
[9]; read-out: LC50 SK-BR-3, SRB assay, 48 hours exposure
  CC50: 3500 nM
[9]; SRB assay, 48 hours exposure
  TGI SK-BR-3: 1.55E−06
[10]; SRB assay, 48 hours exposure
  TGI IGROV: 1.66E−06
[10]; read-out: GI50 IGROV, SRB assay, 48 hours exposure
  GI50: 934 nM
[10]; read-out: LC50 IGROV, SRB assay, 48 hours exposure
  CC50: 26.3 µM
[11]; SRB assay, 48 hours exposure
  TGI IGROV-ET: 2.50E−06
[11]; read-out: GI50 IGROV-ET, SRB assay, 48 hours exposure
  GI50: 1370 nM
[11]; read-out: LC50 IGROV-ET, SRB assay, 48 hours exposure
  CC50: 26.3 µM
[12]; read-out: GI50 HELA, SRB assay, 48 hours exposure
  GI50: 151 nM
[12]; SRB assay, 48 hours exposure
  TGI HELA: 5.26E−07
[13]; read-out: GI50 HELA-APL, SRB assay, 48 hours exposure
  GI50: 98.9 nM
[13]; read-out: LC50 HELA-APL, SRB assay, 48 hours exposure
  CC50: 2300 nM
[13]; SRB assay, 48 hours exposure
  TGI HELA-APL: 2.17E−07
[14]; SRB assay, 48 hours exposure
  TGI PANC-1: 1.29E−05
[14]; read-out: GI50 PANC-1, SRB assay, 48 hours exposure
  GI50: 1790 nM
[14]; read-out: LC50 PANC-1, SRB assay, 48 hours exposure
  CC50: 26.3 µM

## Nc1nccc(-c2c3cccnc3n3c(N)nccc23)n1 [Deoxyvariolin 4, deoxyvariolin B, reference compound]
[1]; Homo sapiens, K562, 48 h, read-out: K-562 GI50, SRB assay, 48 hours exposure
  GI50: 727 nM
[1]; Homo sapiens, K562, 48 h, read-out: K-562 LC50, SRB assay, 48 hours exposure
  CC50: 24.6 µM
[1]; SRB assay, 48 hours exposure
  K-562 TGI: 2.20E−06
[2]; Homo sapiens, A549, 48 h, read-out: A-549 GI50, SRB assay, 48 hours exposure
  GI50: 63.8 nM
[2]; Homo sapiens, A549, 48 h, read-out: A-549 LC50, SRB assay, 48 hours exposure
  CC50: 12.2 µM
[2]; SRB assay, 48 hours exposure
  A-549 TGI: 2.62E−07
[3]; Homo sapiens, SK-MEL-28, 48 h, read-out: MEL-28 GI50, SRB assay, 48 hours exposure
  GI50: 69.2 nM
[3]; Homo sapiens, SK-MEL-28, 48 h, read-out: MEL-28 LC50, SRB assay, 48 hours exposure
  CC50: 0.321 µM
[3]; SRB assay, 48 hours exposure
  MEL-28 TGI: 1.49E−07
[4]; Homo sapiens, HT-29, 48 h, read-out: HT-29 GI50, SRB assay, 48 hours exposure
  GI50: 0.117 µM
[4]; Homo sapiens, HT-29, 48 h, read-out: HT-29 LC50, SRB assay, 48 hours exposure
  CC50: 11.3 µM
[4]; SRB assay, 48 hours exposure
  HT-29 TGI: 4.98E−07
[5]; Homo sapiens, LoVo, 48 h, read-out: LOVO GI50, SRB assay, 48 hours exposure
  GI50: 102 nM
[5]; Homo sapiens, LoVo, 48 h, read-out: LOVO LC50, SRB assay, 48 hours exposure
  CC50: 22.1 µM
[5]; SRB assay, 48 hours exposure
  LOVO TGI: 2.54E−07
[6]; Homo sapiens, 48 h, read-out: LOVO-DOX GI50, SRB assay, 48 hours exposure
  GI50: 101 nM
[6]; Homo sapiens, 48 h, read-out: LOVO-DOX LC50, SRB assay, 48 hours exposure
  CC50: 36.1 µM
[6]; SRB assay, 48 hours exposure
  LOVO-DOX TGI: 2.96E−07
[7]; Homo sapiens, DU-145, 48 h, read-out: DU-145 GI50, SRB assay, 48 hours exposure
  GI50: 95.2 nM
[7]; Homo sapiens, DU-145, 48 h, read-out: DU-145 LC50, SRB assay, 48 hours exposure
  CC50: 5.3 µM
[7]; SRB assay, 48 hours exposure
  DU-145 TGI: 2.46E−07
[8]; Homo sapiens, LNCaP, 48 h, read-out: LN-caP GI50, SRB assay, 48 hours exposure
  GI50: 64.2 nM
[8]; Homo sapiens, LNCaP, 48 h, read-out: LN-caP LC50, SRB assay, 48 hours exposure
  CC50: 272 nM
[8]; SRB assay, 48 hours exposure
  LN-caP TGI: 1.32E−07
[9]; read-out: SK-BR-3 GI50, SRB assay, 48 hours exposure
  GI50: 73.6 nM
[9]; read-out: SK-BR-3 LC50, SRB assay, 48 hours exposure
  CC50: 345 nM
[9]; SRB assay, 48 hours exposure
  SK-BR-3 TGI: 1.59E−07
[10]; Homo sapiens, IGROV-1, 48 h, read-out: IGROV GI50, SRB assay, 48 hours exposure
  GI50: 80.8 nM
[10]; Homo sapiens, IGROV-1, 48 h, read-out: IGROV LC50, SRB assay, 48 hours exposure
  CC50: 1.32 µM
[10]; SRB assay, 48 hours exposure
  IGROV TGI: 8.10E−08
[11]; Homo sapiens, 48 h, read-out: IGROV-ET GI50, SRB assay, 48 hours exposure
  GI50: 129 nM
[11]; Homo sapiens, 48 h, read-out: IGROV-ET LC50, SRB assay, 48 hours exposure
  CC50: 22.9 µM
[11]; SRB assay, 48 hours exposure
  IGROV-ET TGI: 3.42E−07
[12]; read-out: HELA GI50, SRB assay, 48 hours exposure
  GI50: 81.1 nM
[12]; SRB assay, 48 hours exposure
  HELA TGI: 1.60E−07
[13]; read-out: HELA-APL GI50, SRB assay, 48 hours exposure
  GI50: 66 nM
[13]; read-out: HELA-APL LC50, SRB assay, 48 hours exposure
  CC50: 318 nM
[13]; SRB assay, 48 hours exposure
  HELA-APL TGI: 1.45E−07
[14]; Homo sapiens, PANC-1, 48 h, read-out: PANC-1 GI50, SRB assay, 48 hours exposure
  GI50: 162 nM
[14]; Homo sapiens, PANC-1, 48 h, read-out: PANC-1 LC50, SRB assay, 48 hours exposure
  CC50: 15.4 µM
[14]; SRB assay, 48 hours exposure
  PANC-1 TGI: 1.76E−06
